According to PubChem BioAssay AID248 (DTP/NCI, 2004):
Where “and” joins values, the source holds several entries; their conditions need not be identical. Identical values can stand only once. Inconclusive results and toxic doses are left out.

System: L1210 leukemia ip in BDF1 mice, survival T/C
Test: NCI In Vivo Anticancer Drug Screen. Data for tumor model L1210 Leukemia (intraperitoneal) in B6D2F1 (BDF1) mice
Conditions: higher = longer survival
Method in brief: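 Transplanted-tumor mice were given test agent; controls received vehicle only. Survival readings from the two groups were divided (treated over control).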

[1] = endpoint: mean survival time, dose: 25.0 mg/kg/injection, schedule: Q01DX001 (ip), vehicle: other

SMILES: COC(=O)C[C@](O)(CCCC(C)(C)O)C(=O)O[C@@H]1C(OC)=C[C@]23CCCN2CCc2cc4c(cc2[C@H]13)OCO4
- T/C (endpoint: mean survival time, dose: 0.06 mg/kg/injection, schedule: Q01DX009 (ip), vehicle: water): 110 % of control
- T/C (endpoint: mean survival time, dose: 0.13 mg/kg/injection, schedule: Q01DX009 (ip), vehicle: water): 111 % of control
- T/C (endpoint: mean survival time, dose: 0.25 mg/kg/injection, schedule: Q01DX009 (ip), vehicle: acid diluted with saline): 113 % of control
- T/C (endpoint: mean survival time, dose: 0.25 mg/kg/injection, schedule: Q01DX009 (ip), vehicle: water): 113 % of control and 123 % of control (2×)
- T/C (endpoint: mean survival time, dose: 0.25 mg/kg/injection, schedule: Q03HX008 (ip), vehicle: acid diluted with saline): 114 % of control
- T/C (endpoint: mean survival time, dose: 0.25 mg/kg/injection, schedule: Q03HX016 (ip), vehicle: acid diluted with saline): 108 % of control
- T/C (endpoint: mean survival time, dose: 0.5 mg/kg/injection, schedule: Q01DX006 (iv), vehicle: acid diluted with saline): 111 % of control
- T/C (endpoint: mean survival time, dose: 0.5 mg/kg/injection, schedule: Q01DX009 (ip), vehicle: acid diluted with saline): 120 % of control
- T/C (endpoint: mean survival time, dose: 0.5 mg/kg/injection, schedule: Q01DX009 (oral), vehicle: acid diluted with saline): 105 % of control
- T/C (endpoint: mean survival time, dose: 0.5 mg/kg/injection, schedule: Q01DX009 (oral), vehicle: saline): 103 % of control
- T/C (endpoint: mean survival time, dose: 0.5 mg/kg/injection, schedule: Q01DX009 (sc), vehicle: acid diluted with saline): 100 % of control
- T/C (endpoint: mean survival time, dose: 0.5 mg/kg/injection, schedule: Q01DX009 (sc), vehicle: saline): 112 % of control
- T/C (endpoint: mean survival time, dose: 0.5 mg/kg/injection, schedule: Q03HX008 (ip), vehicle: acid diluted with saline): 120 % of control
- T/C (endpoint: mean survival time, dose: 0.5 mg/kg/injection, schedule: Q03HX016 (ip), vehicle: acid diluted with saline): 117 % of control
- T/C (endpoint: mean survival time, dose: 1.0 mg/kg/injection, schedule: Q01DX006 (iv), vehicle: acid diluted with saline): 116 % of control
- T/C (endpoint: mean survival time, dose: 1.0 mg/kg/injection, schedule: Q01DX009 (oral), vehicle: acid diluted with saline): 107 % of control
- T/C (endpoint: mean survival time, dose: 1.0 mg/kg/injection, schedule: Q01DX009 (oral), vehicle: saline): 108 % of control
- T/C (endpoint: mean survival time, dose: 1.0 mg/kg/injection, schedule: Q01DX009 (sc), vehicle: acid diluted with saline): 117 % of control
- T/C (endpoint: mean survival time, dose: 1.0 mg/kg/injection, schedule: Q01DX009 (sc), vehicle: saline): 124 % of control
- T/C (endpoint: mean survival time, dose: 1.0 mg/kg/injection, schedule: Q03HX008 (ip), vehicle: acid diluted with saline): 120 % of control
- T/C (endpoint: mean survival time, dose: 1.0 mg/kg/injection, schedule: Q03HX016 (ip), vehicle: acid diluted with saline): 119 % of control
- T/C (endpoint: mean survival time, dose: 1.0 mg/kg/injection, schedule: Q04DX003 (ip), vehicle: acid diluted with saline): 110 % of control
- T/C (endpoint: mean survival time, dose: 2.0 mg/kg/injection, schedule: Q01DX001 (ip), vehicle: acid diluted with saline): 111 % of control
- T/C (endpoint: mean survival time, dose: 2.0 mg/kg/injection, schedule: Q01DX001 (iv), vehicle: acid diluted with saline): 113 % of control
- T/C (endpoint: mean survival time, dose: 2.0 mg/kg/injection, schedule: Q01DX001 (oral), vehicle: acid diluted with saline): 105 % of control
- T/C (endpoint: mean survival time, dose: 2.0 mg/kg/injection, schedule: Q01DX001 (sc), vehicle: acid diluted with saline): 109 % of control
- T/C (endpoint: mean survival time, dose: 2.0 mg/kg/injection, schedule: Q01DX006 (iv), vehicle: acid diluted with saline): 116 % of control
- T/C (endpoint: mean survival time, dose: 2.0 mg/kg/injection, schedule: Q01DX009 (ip), vehicle: acid diluted with saline): 150 % of control
- T/C (endpoint: mean survival time, dose: 2.0 mg/kg/injection, schedule: Q01DX009 (oral), vehicle: acid diluted with saline): 117 % of control
- T/C (endpoint: mean survival time, dose: 2.0 mg/kg/injection, schedule: Q01DX009 (oral), vehicle: saline): 120 % of control
- T/C (endpoint: mean survival time, dose: 2.0 mg/kg/injection, schedule: Q01DX009 (sc), vehicle: saline): 116 % of control
- T/C (endpoint: mean survival time, dose: 2.0 mg/kg/injection, schedule: Q08DX002 (ip), vehicle: acid diluted with saline): 107 % of control
- T/C (endpoint: mean survival time, dose: 4.0 mg/kg/injection, schedule: Q01DX001 (ip), vehicle: acid diluted with saline): 114 % of control
- T/C (endpoint: mean survival time, dose: 4.0 mg/kg/injection, schedule: Q01DX001 (iv), vehicle: acid diluted with saline): 109 % of control
- T/C (endpoint: mean survival time, dose: 4.0 mg/kg/injection, schedule: Q01DX001 (oral), vehicle: acid diluted with saline): 109 % of control
- T/C (endpoint: mean survival time, dose: 4.0 mg/kg/injection, schedule: Q01DX001 (sc), vehicle: acid diluted with saline): 109 % of control
- T/C (endpoint: mean survival time, dose: 4.0 mg/kg/injection, schedule: Q01DX006 (iv), vehicle: acid diluted with saline): 122 % of control
- T/C (endpoint: mean survival time, dose: 4.0 mg/kg/injection, schedule: Q01DX009 (ip), vehicle: acid diluted with saline): 86 % of control
- T/C (endpoint: mean survival time, dose: 4.0 mg/kg/injection, schedule: Q01DX009 (oral), vehicle: acid diluted with saline): 123 % of control
- T/C (endpoint: mean survival time, dose: 4.0 mg/kg/injection, schedule: Q01DX009 (sc), vehicle: acid diluted with saline): 111 % of control
- T/C (endpoint: mean survival time, dose: 4.0 mg/kg/injection, schedule: Q04DX003 (ip), vehicle: acid diluted with saline): 119 % of control
- T/C (endpoint: mean survival time, dose: 4.0 mg/kg/injection, schedule: Q08DX002 (ip), vehicle: acid diluted with saline): 109 % of control
- T/C (endpoint: mean survival time, dose: 8.0 mg/kg/injection, schedule: Q01DX001 (iv), vehicle: acid diluted with saline): 114 % of control
- T/C (endpoint: mean survival time, dose: 8.0 mg/kg/injection, schedule: Q04DX003 (ip), vehicle: acid diluted with saline): 102 % of control
- T/C (endpoint: mean survival time, dose: 125.0 micrograms/kg/injection, schedule: Q03HX024 (ip), vehicle: acid diluted with saline): 119 % of control
- T/C (endpoint: mean survival time, dose: 1000.0 micrograms/kg/injection, schedule: Q03HX024 (ip), vehicle: acid diluted with saline): 89 % of control
- T/C (endpoint: median survival time, dose: 1.0 mg/kg/injection, schedule: Q04DX003 (ip), vehicle: saline): 110 % of control
- T/C (endpoint: median survival time, dose: 2.0 mg/kg/injection, schedule: Q04DX003 (ip), vehicle: saline): 113 % of control
- T/C (endpoint: median survival time, dose: 4.0 mg/kg/injection, schedule: Q04DX003 (ip), vehicle: saline): 100 % of control

SMILES: Cc1ccc(S(=O)(=O)NCC(=O)NCC(=O)Oc2c(Cl)c(Cl)c(Cl)c(Cl)c2Cl)cc1
- T/C (endpoint: mean survival time, dose: 100.0 mg/kg/injection, schedule: Q01DX001 (ip), vehicle: water): 95 % of control
- T/C (endpoint: mean survival time, dose: 200.0 mg/kg/injection, schedule: Q01DX001 (ip), vehicle: water): 96 % of control
- T/C (endpoint: mean survival time, dose: 400.0 mg/kg/injection, schedule: Q01DX001 (ip), vehicle: water): 95 % of control

SMILES: CCCCCCCCCCCCNCc1ccc(O)cc1
- T/C [1]: 95 % of control
- T/C (endpoint: mean survival time, dose: 25.0 mg/kg/injection, schedule: Q01DX009 (ip), vehicle: saline with Tween-80): 96 % of control
- T/C (endpoint: mean survival time, dose: 25.0 mg/kg/injection, schedule: Q04DX003 (ip), vehicle: saline with Tween-80): 98 % of control
- T/C (endpoint: mean survival time, dose: 50.0 mg/kg/injection, schedule: Q01DX001 (ip), vehicle: other): 93 % of control
- T/C (endpoint: mean survival time, dose: 50.0 mg/kg/injection, schedule: Q01DX009 (ip), vehicle: saline with Tween-80): 93 % of control
- T/C (endpoint: mean survival time, dose: 50.0 mg/kg/injection, schedule: Q04DX003 (ip), vehicle: saline with Tween-80): 101 % of control
- T/C (endpoint: mean survival time, dose: 100.0 mg/kg/injection, schedule: Q01DX001 (ip), vehicle: other): 93 % of control and 90 % of control
- T/C (endpoint: mean survival time, dose: 100.0 mg/kg/injection, schedule: Q01DX009 (ip), vehicle: saline with Tween-80): 88 % of control
- T/C (endpoint: mean survival time, dose: 100.0 mg/kg/injection, schedule: Q04DX003 (ip), vehicle: saline with Tween-80): 102 % of control

SMILES: COC(=O)c1nc(Cl)nc(I)c1Cl
- T/C (endpoint: mean survival time, dose: 12.5 mg/kg/injection, schedule: Q01DX001 (ip), vehicle: other): 102 % of control
- T/C [1]: 90 % of control

SMILES: CN=C(Nc1ccccn1)c1ccc(NC(=O)c2ccc(C(=O)Nc3ccc(C(=NC)Nc4ccccn4)cc3)cc2)cc1
- T/C (endpoint: mean survival time, dose: 1.87 mg/kg/injection, schedule: Q01DX015 (ip), vehicle: methylcellulose (MC)): 95 % of control
- T/C (endpoint: mean survival time, dose: 3.75 mg/kg/injection, schedule: Q01DX015 (ip), vehicle: methylcellulose (MC)): 96 % of control
- T/C (endpoint: mean survival time, dose: 7.5 mg/kg/injection, schedule: Q01DX015 (ip), vehicle: methylcellulose (MC)): 108 % of control
- T/C (endpoint: mean survival time, dose: 15.0 mg/kg/injection, schedule: Q01DX015 (ip), vehicle: methylcellulose (MC)): 101 % of control

SMILES: CC(C)C(=O)/C=C/c1ccc(Cl)cc1
- T/C (endpoint: mean survival time, dose: 100.0 mg/kg/injection, schedule: Q04DX002 (ip), vehicle: gum acacia): 95 % of control
- T/C (endpoint: mean survival time, dose: 200.0 mg/kg/injection, schedule: Q04DX002 (ip), vehicle: gum acacia): 92 % of control
- T/C (endpoint: mean survival time, dose: 400.0 mg/kg/injection, schedule: Q04DX002 (ip), vehicle: gum acacia): 92 % of control

SMILES: CCN(CC)c1cc(C)c2cc(Cc3ccc4nc(N(CC)CC)cc(C)c4c3)ccc2n1
- T/C (endpoint: mean survival time, dose: 100.0 mg/kg/injection, schedule: Q01DX001 (ip), vehicle: saline): 90 % of control
- T/C (endpoint: mean survival time, dose: 200.0 mg/kg/injection, schedule: Q01DX001 (ip), vehicle: saline): 96 % of control
- T/C (endpoint: mean survival time, dose: 400.0 mg/kg/injection, schedule: Q01DX001 (ip), vehicle: saline): 90 % of control

SMILES: C/C(=C1\SC(=S)N(C2OC(CO)C(O)C(O)C2O)C1=O)c1ccco1 (stereo not drawn)
- T/C (endpoint: mean survival time, dose: 12.5 mg/kg/injection, schedule: Q01DX005 (ip), vehicle: water): 109 % of control
- T/C (endpoint: mean survival time, dose: 25.0 mg/kg/injection, schedule: Q01DX005 (ip), vehicle: water): 95 % of control
- T/C (endpoint: mean survival time, dose: 50.0 mg/kg/injection, schedule: Q01DX005 (ip), vehicle: water): 111 % of control
- T/C (endpoint: mean survival time, dose: 100.0 mg/kg/injection, schedule: Q01DX005 (ip), vehicle: water): 98 % of control
- T/C (endpoint: mean survival time, dose: 200.0 mg/kg/injection, schedule: Q01DX005 (ip), vehicle: water): 93 % of control
